Measured values reported in ChEMBL document CHEMBL5230157, “The natural anthraquinone dye purpurin exerts antibacterial activity by perturbing the FtsZ assembly” (Bioorg Med Chem, 2021).
Values after ≈ are worked out from the molar mass of the structure shown. Active and inactive are the calls of the source. No cut-off for these calls is given here.

Experiments:
Bacillus subtilis [1] = experiment: Antibacterial activity against Bacillus subtilis 168 assessed as minimum inhibitory concentration by spectrophotometric method; format: functional
[2] = target: T1, Cell division protein FtsZ (Escherichia coli K-12) (UniProt P0A9A6); experiment: Inhibition of Escherichia coli BL21 FtsZ assessed as inhibition of KCl-induced GTPase activity at 80 uM preincubated for 10 mins followed by KCl stimulation and measured after 10 mins by malachite green ammonium molybdate dye based spectroscopic analysis
T1 sequence (whole entry): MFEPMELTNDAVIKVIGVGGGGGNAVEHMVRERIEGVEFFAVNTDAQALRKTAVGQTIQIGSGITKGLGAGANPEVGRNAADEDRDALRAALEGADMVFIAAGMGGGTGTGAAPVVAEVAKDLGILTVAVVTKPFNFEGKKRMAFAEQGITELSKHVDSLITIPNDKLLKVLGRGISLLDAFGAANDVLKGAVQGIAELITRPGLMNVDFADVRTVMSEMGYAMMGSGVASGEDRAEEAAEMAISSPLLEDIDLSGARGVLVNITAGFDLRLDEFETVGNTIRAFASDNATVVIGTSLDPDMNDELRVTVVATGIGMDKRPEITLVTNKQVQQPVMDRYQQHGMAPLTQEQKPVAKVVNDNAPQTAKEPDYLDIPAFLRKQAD

HeLa [3] = experiment: Antiproliferative activity against human HeLa cells assessed as inhibition of cell proliferation at 10 uM incubated for 24 hrs by sulforhodamine B assay; format: functional; parameters: scale not given: the % may be the effect or the level left
[4] = target: T1, Cell division protein FtsZ (Escherichia coli K-12); experiment: Inhibition of KCl-induced Escherichia coli BL21 FtsZ polymerization assessed as decrease in FtsZ polymer average length at 80 uM incubate for 1 hrs by […] staining based fluorescence microscopy
Tubulin (Homo sapiens) [5] = target: T2, Tubulin (Homo sapiens) (UniProt P68371+Q9H4B7+P0DPH7+P68366+Q13509+Q71U36+P04350+Q3ZCM7+P07437+P68363+Q9BQE3+Q6PEY2+Q13885+Q9BVA1+Q9BUF5); experiment: Inhibition of tubulin polymerization in human HeLa cells assessed as effect on interphase microtubule network at 80 to 150 uM for 24 hrs by […] staining based fluorescence microscopy; format: cell-based; conditions: dose 80-150 µM
Escherichia coli [6] = experiment: Antibacterial activity against Escherichia coli XL1 assessed as bacterial growth inhibition at 200 uM by spectrophotometric method; format: functional; conditions: read-out: GI
[7] = target: T1, Cell division protein FtsZ (Escherichia coli K-12); experiment: Binding affinity to Escherichia coli BL21 FtsZ assessed as hydrophobic probe ANS-FtsZ complex fluorescence quenching at 40 uM for 30 mins by fluorescence analysis
[8] = target: T1, Cell division protein FtsZ (Escherichia coli K-12); experiment: Inhibition of KCl-induced Escherichia coli BL21 FtsZ polymerization assessed as decrease in FtsZ polymer size at 80 uM incubate for 1 hrs by […] staining based fluorescence microscopy
Bacillus subtilis [9] = experiment: Antibacterial activity against Bacillus subtilis 168 assessed as increase in average cell length at 7 uM incubated for 4 hrs in 82% of bacterial cells by fluorescent microscopy; format: functional
[10] = target: T1, Cell division protein FtsZ (Escherichia coli K-12); experiment: Inhibition of KCl-induced Escherichia coli BL21 FtsZ polymerization at 20 uM incubate for 10 min followed by KCl stimulation by spectrofluorimeter based light-scattering assay
[11] = target: T3, Cell division protein FtsZ (Bacillus subtilis, UniProt A5Z1V5); experiment: Binding affinity to Bacillus subtilis FtsZ assessed as dissociation constant of intrinsic tryptophan quenching incubated for 30 mins by double reciprocal plot analysis
T3 sequence (A5Z1V5 whole entry): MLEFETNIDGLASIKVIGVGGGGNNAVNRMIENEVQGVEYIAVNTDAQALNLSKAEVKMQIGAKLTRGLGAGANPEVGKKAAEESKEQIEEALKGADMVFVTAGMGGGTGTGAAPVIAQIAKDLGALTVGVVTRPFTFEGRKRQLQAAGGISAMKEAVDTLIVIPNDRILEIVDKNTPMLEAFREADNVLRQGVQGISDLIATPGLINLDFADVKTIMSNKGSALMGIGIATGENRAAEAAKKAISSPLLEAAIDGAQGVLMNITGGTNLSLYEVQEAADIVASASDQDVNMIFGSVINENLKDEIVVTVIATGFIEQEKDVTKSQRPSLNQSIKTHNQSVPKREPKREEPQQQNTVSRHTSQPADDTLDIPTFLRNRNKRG

HeLa [12] = experiment: Antiproliferative activity against human HeLa cells assessed as inhibition of cell proliferation at 20 uM incubated for 24 hrs by sulforhodamine B assay; format: functional; parameters: scale not given: the % may be the effect or the level left
[13] = target: T1, Cell division protein FtsZ (Escherichia coli K-12); experiment: Binding affinity to Escherichia coli BL21 FtsZ assessed as hydrophobic probe ANS-FtsZ complex fluorescence quenching at 20 uM for 30 mins by fluorescence analysis
Escherichia coli [14] = experiment: Antibacterial activity against Escherichia coli XL1 assessed as bacterial growth inhibition at 80 uM by spectrophotometric method; format: functional; conditions: read-out: GI
Bacillus subtilis [15] = experiment: Antibacterial activity against Bacillus subtilis 168 assessed as increase in average cell length at 7 uM incubated for 4 hrs in 45% of bacterial cells by fluorescent microscopy; format: functional
[16] = target: T1, Cell division protein FtsZ (Escherichia coli K-12); experiment: Inhibition of Escherichia coli BL21 FtsZ assessed as inhibition of KCl-induced GTPase activity at 5 uM preincubated for 10 mins followed by KCl stimulation and measured after 10 mins by malachite green ammonium molybdate dye based spectroscopic analysis; conditions: time 20.0 min
[17] = target: T1, Cell division protein FtsZ (Escherichia coli K-12); experiment: Inhibition of KCl-induced Escherichia coli BL21 FtsZ polymerization at 40 uM incubate for 10 min followed by KCl stimulation by spectrofluorimeter based light-scattering assay
HeLa [18] = experiment: Antiproliferative activity against human HeLa cells assessed as inhibition of cell proliferation at 300 uM incubated for 24 hrs by sulforhodamine B assay; format: functional; parameters: scale not given: the % may be the effect or the level left
Bacillus subtilis [19] = experiment: Antibacterial activity against Bacillus subtilis 168 assessed as fold increase in average cell length at 7 uM incubated for 4 hrs by fluorescent microscopy; format: functional
Escherichia coli [20] = experiment: Antibacterial activity against Escherichia coli XL1 assessed as bacterial growth inhibition at 10 uM by spectrophotometric method; format: functional; conditions: read-out: GI
[21] = target: T1, Cell division protein FtsZ (Escherichia coli K-12); experiment: Binding affinity to Escherichia coli BL21 FtsZ assessed as hydrophobic probe ANS-FtsZ complex fluorescence quenching at 5 uM for 30 mins by fluorescence analysis
Escherichia coli [22] = experiment: Antibacterial activity against Escherichia coli XL1 assessed as bacterial growth inhibition at 150 uM by spectrophotometric method; format: functional; conditions: read-out: GI
Bacillus subtilis [23] = experiment: Antibacterial activity against Bacillus subtilis 168 assessed as increase in average cell length at 7 uM incubated for 4 hrs in 23% of bacterial cells by fluorescent microscopy; format: functional
Bacillus subtilis [24] = experiment: Antibacterial activity against Bacillus subtilis 168 assessed as bacterial growth inhibition at 10 uM by spectrophotometric method; format: functional; conditions: read-out: GI
Tubulin (Homo sapiens) [25] = target: T2, Tubulin (Homo sapiens); experiment: Inhibition of tubulin polymerization […] assessed as effect on MAP rich- tubulin polymer mass at 20 to 80 uM preincubated for 10 mins followed by GTP addition and measured after 1 hrs by Bradford assay; conditions: dose 20-80 µM, time 70.0 min

`O=C1c2ccccc2C(=O)c2c(O)c(O)cc(O)c21` [PURPURIN] showed an MIC (Bacillus subtilis [1]) of 30 µM (≈ 7.69 µg/mL), an inhibition [2] of 21.9% and an Activity (HeLa [3]) of 6%. The inhibition [4] was “Active”, the inhibition (Tubulin (Homo sapiens) [5]) was “inactive” and the inhibition of growth at 200 µM (Escherichia coli [6]) was 67.8%. For the same compound, the Activity [7] was 66%, the inhibition [8] was “Active” and the Activity (Bacillus subtilis [9]) was 20.1 um. It also gave an inhibition [10] of 20%, a Kd [11] of 5.2 µM and an Activity (HeLa [12]) of 14%. The Activity [13] was 45%, the inhibition of growth at 80 µM (Escherichia coli [14]) was 38% and the Activity (Bacillus subtilis [15]) was 10.1 um. For the same compound, the inhibition [16] was 11.5%, the inhibition [17] was 31% and the Activity (HeLa [18]) was 89%. The “fold change (FC)” value (Bacillus subtilis [19]) was 10, the inhibition of growth at 10 µM (Escherichia coli [20]) was 12.5% and the Activity [21] was 25%. The inhibition of growth at 150 µM (Escherichia coli [22]) was 47.8%, the Activity (Bacillus subtilis [23]) was 50.1 um and the inhibition of growth at 10 µM (Bacillus subtilis [24]) was 65%. The inhibition (Tubulin (Homo sapiens) [25]) was “inactive”.
